Legend:
Assay in all cases: relative viability (nuclei count vs DMSO), 5 days (fraction); higher = more cells survive
EKVX = test system: EKVX
Outline: (§1)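 Dosing by pin tool came one day after lung cancer cell lines were seeded in 1536-well plates, using either one drug or a fixed anchor-drug dose plus five library-drug doses (not always all listed) in √10 steps. After 5 days, nuclei were counted on 4× images. Relative viability is treated-well nuclei count divided by vehicle-well nuclei count, and values are medians of duplicate plates.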

HARA = test system: HARA
Outline: as §1

LK-2 = test system: LK-2
Outline: as §1

NCI-H2009 = test system: NCI-H2009
Outline: as §1

BEN = test system: BEN
Outline: as §1

201T = test system: 201T
Outline: as §1

NCI-H661 = test system: NCI-H661
Outline: as §1

ABC-1 = test system: ABC-1
Outline: as §1

NCI-H2170 = test system: NCI-H2170
Outline: as §1

NCI-H1666 = test system: NCI-H1666
Outline: as §1

NCI-H441 = test system: NCI-H441
Outline: as §1

HCC-366 = test system: HCC-366
Outline: as §1

NCI-H838 = test system: NCI-H838
Outline: as §1

NCI-H1650 = test system: NCI-H1650
Outline: as §1

COR-L23 = test system: COR-L23
Outline: as §1

SW 900 = test system: SW 900
Outline: as §1

NCI-H1437 = test system: NCI-H1437
Outline: as §1

NCI-H727 = test system: NCI-H727
Outline: as §1

CAL-12T = test system: CAL-12T
Outline: as §1

NCI-H3122 = test system: NCI-H3122
Outline: as §1

PC-14 = test system: PC-14
Outline: as §1

COR-L 105 = test system: COR-L 105
Outline: as §1

LU99A = test system: LU99A
Outline: as §1

NCI-H2023 = test system: NCI-H2023
Outline: as §1

Clc1ccc(Nc2nnc(Cc3ccncc3)c3ccccc23)cc1 [Vatalanib] + N=C(N)NC(=N)NCCc1ccccc1 [Phenformin] (partner 250 µM)
relative viability (EKVX; first compound 0.04 µM): 0.232
relative viability (EKVX; first compound 0.1265 µM): 0.236
relative viability (EKVX; first compound 0.4 µM): 0.205
relative viability (EKVX; first compound 4 µM): 0.212
relative viability (HARA; first compound 0.04 µM): 0.452
relative viability (HARA; first compound 0.1265 µM): 0.397
relative viability (HARA; first compound 0.4 µM): 0.497
relative viability (HARA; first compound 1.265 µM): 0.42
relative viability (HARA; first compound 4 µM): 0.354
relative viability (LK-2; first compound 0.04 µM): 0.408
relative viability (LK-2; first compound 0.1265 µM): 0.398
relative viability (LK-2; first compound 0.4 µM): 0.381
relative viability (LK-2; first compound 1.265 µM): 0.466
relative viability (LK-2; first compound 4 µM): 0.393
relative viability (NCI-H2009; first compound 0.04 µM): 0.578
relative viability (NCI-H2009; first compound 0.1265 µM): 0.439
relative viability (NCI-H2009; first compound 0.4 µM): 0.464
relative viability (NCI-H2009; first compound 1.265 µM): 0.406
relative viability (NCI-H2009; first compound 4 µM): 0.391
relative viability (BEN; first compound 0.04 µM): 0.29
relative viability (BEN; first compound 0.1265 µM): 0.233
relative viability (BEN; first compound 0.4 µM): 0.274
relative viability (BEN; first compound 1.265 µM): 0.231
relative viability (BEN; first compound 4 µM): 0.306
relative viability (201T; first compound 0.04 µM): 0.436
relative viability (201T; first compound 0.1265 µM): 0.451
relative viability (201T; first compound 0.4 µM): 0.437
relative viability (201T; first compound 1.265 µM): 0.405
relative viability (201T; first compound 4 µM): 0.431
relative viability (NCI-H661; first compound 0.04 µM): 0.32
relative viability (NCI-H661; first compound 0.1265 µM): 0.248
relative viability (NCI-H661; first compound 0.4 µM): 0.304
relative viability (NCI-H661; first compound 1.265 µM): 0.267
relative viability (NCI-H661; first compound 4 µM): 0.286
relative viability (ABC-1; first compound 0.04 µM): 0.241
relative viability (ABC-1; first compound 0.1265 µM): 0.242
relative viability (ABC-1; first compound 1.265 µM): 0.262
relative viability (ABC-1; first compound 4 µM): 0.222
relative viability (NCI-H2170; first compound 0.04 µM): 0.437
relative viability (NCI-H2170; first compound 0.1265 µM): 0.476
relative viability (NCI-H2170; first compound 0.4 µM): 0.469
relative viability (NCI-H2170; first compound 1.265 µM): 0.405
relative viability (NCI-H2170; first compound 4 µM): 0.353
relative viability (NCI-H1666; first compound 0.04 µM): 0.563
relative viability (NCI-H1666; first compound 0.1265 µM): 0.566
relative viability (NCI-H1666; first compound 0.4 µM): 0.449
relative viability (NCI-H1666; first compound 1.265 µM): 0.519
relative viability (NCI-H1666; first compound 4 µM): 0.559
relative viability (NCI-H441; first compound 0.04 µM): 0.904
relative viability (NCI-H441; first compound 0.1265 µM): 0.761
relative viability (NCI-H441; first compound 0.4 µM): 0.849
relative viability (NCI-H441; first compound 1.265 µM): 0.729
relative viability (NCI-H441; first compound 4 µM): 0.819
relative viability (HCC-366; first compound 0.04 µM): 0.597
relative viability (HCC-366; first compound 0.1265 µM): 0.554
relative viability (HCC-366; first compound 0.4 µM): 0.6
relative viability (HCC-366; first compound 1.265 µM): 0.575
relative viability (HCC-366; first compound 4 µM): 0.547
relative viability (NCI-H838; first compound 0.04 µM): 0.607
relative viability (NCI-H838; first compound 0.1265 µM): 0.476
relative viability (NCI-H838; first compound 0.4 µM): 0.69
relative viability (NCI-H838; first compound 1.265 µM): 0.563
relative viability (NCI-H838; first compound 4 µM): 0.548
relative viability (NCI-H1650; first compound 0.04 µM): 0.401
relative viability (NCI-H1650; first compound 0.1265 µM): 0.307
relative viability (NCI-H1650; first compound 0.4 µM): 0.36
relative viability (NCI-H1650; first compound 1.265 µM): 0.364
relative viability (NCI-H1650; first compound 4 µM): 0.403
relative viability (COR-L23; first compound 0.04 µM): 0.442
relative viability (COR-L23; first compound 0.1265 µM): 0.43
relative viability (COR-L23; first compound 0.4 µM): 0.467
relative viability (COR-L23; first compound 1.265 µM): 0.389
relative viability (COR-L23; first compound 4 µM): 0.402
relative viability (SW 900; first compound 0.1265 µM): 0.689
relative viability (SW 900; first compound 0.4 µM): 0.539
relative viability (SW 900; first compound 1.265 µM): 0.458
relative viability (SW 900; first compound 4 µM): 0.544
relative viability (NCI-H1437; first compound 0.04 µM): 0.341
relative viability (NCI-H1437; first compound 0.1265 µM): 0.281
relative viability (NCI-H1437; first compound 0.4 µM): 0.298
relative viability (NCI-H1437; first compound 1.265 µM): 0.247
relative viability (NCI-H1437; first compound 4 µM): 0.273
relative viability (NCI-H727; first compound 0.04 µM): 0.531
relative viability (NCI-H727; first compound 0.1265 µM): 0.572
relative viability (NCI-H727; first compound 0.4 µM): 0.519
relative viability (NCI-H727; first compound 1.265 µM): 0.558
relative viability (NCI-H727; first compound 4 µM): 0.466
relative viability (CAL-12T; first compound 0.04 µM): 0.633
relative viability (CAL-12T; first compound 0.1265 µM): 0.495
relative viability (CAL-12T; first compound 0.4 µM): 0.328
relative viability (CAL-12T; first compound 1.265 µM): 0.539
relative viability (CAL-12T; first compound 4 µM): 0.567
relative viability (NCI-H3122; first compound 0.04 µM): 0.401
relative viability (NCI-H3122; first compound 0.1265 µM): 0.365
relative viability (NCI-H3122; first compound 1.265 µM): 0.316
relative viability (NCI-H3122; first compound 4 µM): 0.323
relative viability (PC-14; first compound 0.04 µM): 0.552
relative viability (PC-14; first compound 0.1265 µM): 0.466
relative viability (PC-14; first compound 1.265 µM): 0.458
relative viability (PC-14; first compound 4 µM): 0.541
relative viability (COR-L 105; first compound 0.04 µM): 0.469
relative viability (COR-L 105; first compound 0.1265 µM): 0.37
relative viability (COR-L 105; first compound 0.4 µM): 0.475
relative viability (COR-L 105; first compound 1.265 µM): 0.45
relative viability (COR-L 105; first compound 4 µM): 0.423
relative viability (LU99A; first compound 0.04 µM): 0.839
relative viability (LU99A; first compound 0.1265 µM): 0.764
relative viability (LU99A; first compound 0.4 µM): 1.04
relative viability (LU99A; first compound 1.265 µM): 0.705
relative viability (LU99A; first compound 4 µM): 0.813
relative viability (NCI-H2023; first compound 0.04 µM): 0.447
relative viability (NCI-H2023; first compound 0.1265 µM): 0.397
relative viability (NCI-H2023; first compound 0.4 µM): 0.477
relative viability (NCI-H2023; first compound 1.265 µM): 0.376
relative viability (NCI-H2023; first compound 4 µM): 0.341

Reference: the supplement of paper PMC10307832
